How the values were obtained:
human EGF-R = target: T1, human EGF-R (Homo sapiens, UniProt P00533); assay: Inhibition of EGF-dependent proliferation of F/L-HERc cells (Cell Titer 96 assay); assay type: cell-based; settings: F/L-HERc cells (murine IL-3-dependent line expressing human EGF-R), stimulated with EGF 20 ng/ml, 48 hours at 37° C.
T1 construct: expressed in transfected cells; host or cells: F/L-HERc cells (murine IL-3-dependent FDC-P1 line transduced with an LXSN retroviral vector carrying human EGF-R cDNA; packaging line GP+E86)
T1 sequence (P00533 25-1210): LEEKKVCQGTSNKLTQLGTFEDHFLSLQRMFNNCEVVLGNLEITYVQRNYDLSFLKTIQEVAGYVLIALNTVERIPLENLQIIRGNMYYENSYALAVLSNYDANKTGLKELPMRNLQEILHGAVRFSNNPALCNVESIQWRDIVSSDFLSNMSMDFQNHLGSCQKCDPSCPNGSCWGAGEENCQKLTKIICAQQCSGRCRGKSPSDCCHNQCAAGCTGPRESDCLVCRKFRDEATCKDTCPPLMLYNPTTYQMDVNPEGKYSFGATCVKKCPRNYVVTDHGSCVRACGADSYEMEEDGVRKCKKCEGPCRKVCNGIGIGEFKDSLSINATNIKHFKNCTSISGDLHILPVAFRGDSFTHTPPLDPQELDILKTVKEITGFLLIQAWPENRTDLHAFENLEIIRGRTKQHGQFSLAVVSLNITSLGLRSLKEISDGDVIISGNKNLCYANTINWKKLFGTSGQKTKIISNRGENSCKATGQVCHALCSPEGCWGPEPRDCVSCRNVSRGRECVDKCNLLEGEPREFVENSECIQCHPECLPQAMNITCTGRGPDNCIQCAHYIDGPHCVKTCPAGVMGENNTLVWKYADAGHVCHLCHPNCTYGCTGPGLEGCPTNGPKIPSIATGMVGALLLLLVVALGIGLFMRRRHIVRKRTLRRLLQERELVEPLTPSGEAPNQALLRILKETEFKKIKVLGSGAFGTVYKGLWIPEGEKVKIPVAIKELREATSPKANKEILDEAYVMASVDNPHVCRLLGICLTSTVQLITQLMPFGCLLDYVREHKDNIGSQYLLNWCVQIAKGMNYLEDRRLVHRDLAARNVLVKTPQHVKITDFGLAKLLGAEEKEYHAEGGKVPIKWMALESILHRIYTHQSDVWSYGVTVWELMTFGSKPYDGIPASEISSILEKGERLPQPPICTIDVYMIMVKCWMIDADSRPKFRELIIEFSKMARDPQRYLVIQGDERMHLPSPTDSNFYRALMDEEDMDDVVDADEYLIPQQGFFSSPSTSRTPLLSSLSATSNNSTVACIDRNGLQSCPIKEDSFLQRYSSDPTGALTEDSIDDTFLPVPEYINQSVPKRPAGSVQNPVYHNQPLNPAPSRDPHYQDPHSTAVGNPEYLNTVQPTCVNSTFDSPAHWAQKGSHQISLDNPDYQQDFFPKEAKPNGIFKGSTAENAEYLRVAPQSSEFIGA
Description: A cell line of murine origin dependent on interleukin-3-(IL-3) which was genetically modified to express functional human EGF-R was used here. The proliferation of these cells known as F/L-HERc can therefore be stimulated either by murine IL-3 or by EGF (cf T. von Ruiden et al., EMBO J. 7, 2749-2756 (1988) and J. H. Pierce et al., Science 239, 628-631 (1988)).
The starting material used for the F/L-HERc cells was the cell line FDC-P1, the production of which has been described by T. M. Dexter et al., J. Exp. Med. 152. 1036-1047 (1980). Alternatively, however, other growth-factor-dependent cells may also be used (cf., e.g., J.H. Pierce et al., Science 239, 628-631 (1988); H. Shibuya et al., Cell 70, 57-67 (1992); and W. S. Alexander et al., EMBO J. 10, 3683-3691 (1991)). For expressing the human EGF-R cDNA (cf A. Ullrich et al., Nature 309, 418-425 (1984)) recombinant retroviruses were used as described by T. von Ruiden et al., EMBO J. 7, 2749-2756 (1988), except that the retroviral vector LXSN (cf A. D. Miller et al., BioTechniques 7, 980-990 (1989)) was used for the expression of the EGF-R cDNA and the line GP+E86 (cf D. Markowitz et al., J. Virol. 62, 1120-1124 (1988)) was used as the packaging cell.
The test was performed as follows:
F/L-HERc cells were cultivated in RPMI/1640 medium (BioWhittaker), supplemented with 10% fetal calf serum (FCS, Boehringer Mannheim), 2 mM glutamine (BioWhittaker), standard antibiotics and 20 ng/ml of human EGF (Promega), at 37° C. and 5% CO2. In order to investigate the inhibitory activity of the compounds according to the invention, 1.5×10^4 cells per well were cultivated in triplicate in 96-well plates in the above medium (200 μl), the cell proliferation being stimulated with either EGF (20 ng/ml) or murine IL-3. The IL-3 used was obtained from culture supernatants of the cell line X63/0 mIL-3 (cf H. Karasuyama et al., Eur. J. Immunol. 18, 97-104 (1988)). The compounds according to the invention were dissolved in 100% dimethylsulfoxide (DMSO) and added to the cultures in various dilutions, the maximum DMSO concentration being 1%. The cultures were incubated for 48 hours at 37° C.
In order to determine the inhibitory activity of the compounds according to the invention the relative cell number was measured in O.D. units using the Cell Titer 96™ Aqueous Non-Radioactive Cell Proliferation Assay (Promega). The relative cell number was calculated as a percentage of the control (F/LHERc cells without inhibitor) and the concentration of active substance which inhibits the proliferation of the cells by 50% (IC50) was derived therefrom.

SMILES | melting point | IC50 (human EGF-R)
O=C(O)CCN1CCC(N2CCN(c3ncc4ncnc(Nc5ccc(F)c(Cl)c5)c4n3)CC2)CC1 [1(8), 4-[(3-chloro-4-fluorophenyl)amino]-6-{4-[1-(2-carboxyethyl)piperidin-4-yl]piperazin-1-yl}pyrimido[5,4-d]pyrimidine] | 213 °C (dec.) | 1.45 µM
CN(CCC(=O)O)C1CCN(c2ncc3ncnc(Nc4ccc(F)c(Cl)c4)c3n2)CC1 [1(11), 4-[(3-chloro-4-fluorophenyl)amino]-6-[4-[N-(2-carboxyethyl)-N-methylamino]piperidin-1-yl]pyrimido[5,4-d]pyrimidine] | 139 to 165 °C (dec.) | 2.32 µM
O=C(O)C1CCN(CCNc2ncc3ncnc(Nc4ccc(F)c(Cl)c4)c3n2)CC1 [1(10), 4-[(3-chloro-4-fluorophenyl)amino]-6-[2-(4-carboxypiperidin-1-yl)ethylamino]pyrimido [5,4-d]pyrimidine] | 190 °C (dec.) | 2.51 µM

These reach a lower IC50 (human EGF-R). Values come first.

melting point | IC50 (human EGF-R) | SMILES
202 to 204 °C | 0.122 µM | O=C1CN(C2CCC(Nc3ncc4ncnc(Nc5ccc(F)c(Cl)c5)c4n3)CC2)CCO1 (stereo not drawn) [Example 7, 4-[(3-chloro-4-fluorophenyl)amino]-6-{[trans-4-(2-oxomorpholin-4-yl)cvclohex-1-yl]amino}pyrimido[5,4-d]pyrimidine]
164 °C | 0.073 µM | COC(=O)CN1CCC(Nc2ncc3ncnc(Nc4cccc(C)c4)c3n2)CC1 [2(24), 4-[(3-methylphenyl)amino]-6-({1-[(methoxycarbonyl)methyl]piperidin-4-yl}amino)pyrimido[5,4-d]pyrimidine]

From patent publication US20020082420A1, “Bicyclic heterocycles, pharmaceutical compositions containing them, their use, and processes for preparing them” (priority 2000, published 2002)
